Experimental data: the NIST ThermoML archive (doi:10.1016/j.jct.2014.05.013)
Numbers after ± are expanded uncertainties.

Assays:
[1] = 100 kPa, Liquid, Vibrating tube method
[2] = wn = mass fraction of the nth substance listed; conditions: 100 kPa, Liquid, Vibrating tube method
[3] = refractive index (Na D-line) (dimensionless); wn = mass fraction of the nth substance listed; conditions: 100 kPa, Liquid, Standard Abbe refractometry

With `CNC=O` [N-methylformamide] the mass density ([1]; 288.15 K) was 1007.94 ± 1 kg/m3, the mass density ([1]; 298.15 K) was 999.25 ± 1 kg/m3 and the mass density ([1]; 308.15 K) was 990.63 ± 1 kg/m3.
Compound `CNC=O` [N-methylformamide] + O has a mass density ([2]; 288.15 K, w1 = 0.2) of 1010.26 ± 1 kg/m3, a mass density ([2]; 288.15 K, w1 = 0.4) of 1019.56 ± 1 kg/m3 and a mass density ([2]; 288.15 K, w1 = 0.6) of 1023.57 ± 1 kg/m3. For the same compound, the mass density ([2]; 288.15 K, w1 = 0.8) was 1019.32 ± 1 kg/m3, the mass density ([2]; 288.15 K, w1 = 1) was 1007.94 ± 1 kg/m3 and the mass density ([2]; 298.15 K, w1 = 0.2) was 1006.21 ± 1 kg/m3. The mass density ([2]; 298.15 K, w1 = 0.4) was 1013.7 ± 1 kg/m3, the mass density ([2]; 298.15 K, w1 = 0.6) was 1016.29 ± 1 kg/m3 and the mass density ([2]; 298.15 K, w1 = 0.8) was 1011.11 ± 1 kg/m3. For the same compound, the mass density ([2]; 298.15 K, w1 = 1) was 999.25 ± 1 kg/m3, the mass density ([2]; 308.15 K, w1 = 0.2) was 1001.56 ± 1 kg/m3 and the mass density ([2]; 308.15 K, w1 = 0.4) was 1007.51 ± 1 kg/m3. For the same compound, the mass density ([2]; 308.15 K, w1 = 0.6) was 1008.9 ± 1 kg/m3, the mass density ([2]; 308.15 K, w1 = 0.8) was 1003.04 ± 1 kg/m3 and the mass density ([2]; 308.15 K, w1 = 1) was 990.63 ± 1 kg/m3.
For `[Cl-].[Cs+]` [cesium chloride] + CN(C)C=O, the mass density ([2]; 288.15 K, w1 = 0.0005) was 961.27 ± 1 kg/m3, the mass density ([2]; 298.15 K, w1 = 0.0008) was 944.51 ± 1 kg/m3 and the mass density ([2]; 308.15 K, w1 = 0.0016) was 937.54 ± 1 kg/m3. For the same compound, the refractive index ([3]; 288.15 K, w1 = 0.0005) was 1.43298 ± 0.00032, the refractive index ([3]; 298.15 K, w1 = 0.0008) was 1.4292 ± 0.00032 and the refractive index ([3]; 308.15 K, w1 = 0.0016) was 1.42658 ± 0.00032.
`[Cl-].[Cs+]` [cesium chloride] + CNC=O showed a mass density ([2]; 288.15 K, w1 = 0.0585) of 1054.35 ± 1.2 kg/m3, a mass density ([2]; 298.15 K, w1 = 0.0599) of 1046.14 ± 1.2 kg/m3 and a mass density ([2]; 308.15 K, w1 = 0.062) of 1038.58 ± 1.2 kg/m3. It also gave a refractive index ([3]; 288.15 K, w1 = 0.0585) of 1.43767 ± 0.00032, a refractive index ([3]; 298.15 K, w1 = 0.0599) of 1.43465 ± 0.00032 and a refractive index ([3]; 308.15 K, w1 = 0.062) of 1.43161 ± 0.00032.
With `[Cl-].[Cs+]` [cesium chloride] + NC=O the mass density ([2]; 288.15 K, w1 = 0.2292) was 1359.39 ± 1.3 kg/m3, the mass density ([2]; 298.15 K, w1 = 0.2331) was 1354.37 ± 1.3 kg/m3 and the mass density ([2]; 308.15 K, w1 = 0.2412) was 1354.14 ± 1.3 kg/m3. The refractive index ([3]; 288.15 K, w1 = 0.2292) was 1.46286 ± 0.00032, the refractive index ([3]; 298.15 K, w1 = 0.2331) was 1.46096 ± 0.00032 and the refractive index ([3]; 308.15 K, w1 = 0.2412) was 1.45811 ± 0.00032.
For `[Cl-].[Cs+]` [cesium chloride] + O, the mass density ([2]; 288.15 K, w1 = 0.646) was 1894.15 ± 1.5 kg/m3, the mass density ([2]; 298.15 K, w1 = 0.6545) was 1921.87 ± 1.5 kg/m3 and the mass density ([2]; 308.15 K, w1 = 0.6666) was 1947.03 ± 1.6 kg/m3. It also gave a refractive index ([3]; 288.15 K, w1 = 0.646) of 1.41803 ± 0.00032, a refractive index ([3]; 298.15 K, w1 = 0.6545) of 1.41971 ± 0.00032 and a refractive index ([3]; 308.15 K, w1 = 0.6666) of 1.42086 ± 0.00032.
For `CN(C)C=O` [dimethylformamide], the mass density ([1]; 288.15 K) was 953.53 ± 1 kg/m3, the mass density ([1]; 298.15 K) was 943.89 ± 1 kg/m3 and the mass density ([1]; 308.15 K) was 934.39 ± 1 kg/m3.
Work on `CN(C)C=O` [dimethylformamide] + O yielded a mass density ([2]; 288.15 K, w1 = 0.2) of 1000.62 ± 1 kg/m3, a mass density ([2]; 288.15 K, w1 = 0.4) of 1003.56 ± 1 kg/m3 and a mass density ([2]; 288.15 K, w1 = 0.6) of 1001.34 ± 1 kg/m3. For the same compound, the mass density ([2]; 288.15 K, w1 = 0.8) was 986.63 ± 1 kg/m3, the mass density ([2]; 288.15 K, w1 = 1) was 953.53 ± 1 kg/m3 and the mass density ([2]; 298.15 K, w1 = 0.2) was 996.32 ± 1 kg/m3. For the same compound, the mass density ([2]; 298.15 K, w1 = 0.4) was 996.99 ± 1 kg/m3, the mass density ([2]; 298.15 K, w1 = 0.6) was 992.97 ± 1 kg/m3 and the mass density ([2]; 298.15 K, w1 = 0.8) was 977.38 ± 1 kg/m3. For the same compound, the mass density ([2]; 298.15 K, w1 = 1) was 943.89 ± 1 kg/m3, the mass density ([2]; 308.15 K, w1 = 0.2) was 991.45 ± 1 kg/m3 and the mass density ([2]; 308.15 K, w1 = 0.4) was 990 ± 1 kg/m3. It also gave a mass density ([2]; 308.15 K, w1 = 0.6) of 984.33 ± 1 kg/m3, a mass density ([2]; 308.15 K, w1 = 0.8) of 968.07 ± 1 kg/m3 and a mass density ([2]; 308.15 K, w1 = 1) of 934.39 ± 1 kg/m3.
For `NC=O` [formamide], the mass density ([1]; 288.15 K) was 1137.8 ± 1 kg/m3, the mass density ([1]; 298.15 K) was 1129.18 ± 1 kg/m3 and the mass density ([1]; 308.15 K) was 1120.75 ± 1 kg/m3.
Compound `NC=O` [formamide] + O has a mass density ([2]; 288.15 K, w1 = 0.2) of 1030.04 ± 1 kg/m3, a mass density ([2]; 288.15 K, w1 = 0.4) of 1058.41 ± 1 kg/m3 and a mass density ([2]; 288.15 K, w1 = 0.6) of 1085.67 ± 1 kg/m3. For the same compound, the mass density ([2]; 288.15 K, w1 = 0.8) was 1111.83 ± 1 kg/m3, the mass density ([2]; 288.15 K, w1 = 1) was 1137.8 ± 1 kg/m3 and the mass density ([2]; 298.15 K, w1 = 0.2) was 1025.59 ± 1 kg/m3. The mass density ([2]; 298.15 K, w1 = 0.4) was 1052.51 ± 1 kg/m3, the mass density ([2]; 298.15 K, w1 = 0.6) was 1078.6 ± 1 kg/m3 and the mass density ([2]; 298.15 K, w1 = 0.8) was 1103.81 ± 1 kg/m3. The mass density ([2]; 298.15 K, w1 = 1) was 1129.18 ± 1 kg/m3, the mass density ([2]; 308.15 K, w1 = 0.2) was 1020.7 ± 1 kg/m3 and the mass density ([2]; 308.15 K, w1 = 0.4) was 1046.35 ± 1 kg/m3. It also gave a mass density ([2]; 308.15 K, w1 = 0.6) of 1071.43 ± 1 kg/m3, a mass density ([2]; 308.15 K, w1 = 0.8) of 1095.93 ± 1 kg/m3 and a mass density ([2]; 308.15 K, w1 = 1) of 1120.75 ± 1 kg/m3.
`O` [water] gave a mass density ([1]; 288.15 K) of 999 ± 1 kg/m3.
For `O` [water] + CN(C)C=O, the mass density ([2]; 288.15 K, w2 = 0) was 999 ± 1 kg/m3.
With `O` [water] + CNC=O the mass density ([2]; 288.15 K, w2 = 0) was 999 ± 1 kg/m3.
Compound `O` [water] + NC=O has a mass density ([2]; 288.15 K, w2 = 0) of 999 ± 1 kg/m3.
